Our source for the IC50 values is patent US10370333B2 (Sanford Burnham Prebys Medical Discovery Institute, priority 2012, dated 2019).

For the experiment, the target named is TNAP (Homo sapiens (Human), UniProt P05186). The experiment in a line: TNAP (PPi) inhibition assay, pyrophosphate as substrate. The experiment is classed as biochemical. Put shortly:
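Secreted epitope-tagged human TNAP from transiently transfected COS-1 cells, dialyzed to remove phosphate. Inhibitors tested kinetically at pH 7.4 with PPi as substrate; released phosphate quantified colorimetrically with Biomol Green reagent.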

Some results are limits rather than exact numbers.

Take `COc1ccc(Br)cc1S(=O)(=O)Nc1ccnnc1` [Example V-26, 5-Bromo-2-methoxy-N-pyridazin-4-yl-benzenesulfonamide]: the IC50 is greater than 1000 nM.

`COc1ccc(OC)c(S(=O)(=O)Nc2ccnnc2)c1` [Example V-27, 2,5-Dimethoxy-N-pyridazin-4-yl-benzenesulfonamide] had an IC50 greater than 1000 nM.

`COc1ccc(Br)cc1S(=O)(=O)Nc1ncccn1` [Example V-28, 5-Bromo-2-methoxy-N-pyrimidin-2-yl-benzenesulfonamide] came in with an IC50 greater than 1000 nM.

`COc1ccc(OC)c(S(=O)(=O)Nc2ncccn2)c1` [Example V-29, 2,5-Dimethoxy-N-pyrimidin-2-yl-benzenesulfonamide] registered an IC50 greater than 1000 nM.

For `COc1ncc(Br)cc1S(=O)(=O)Nc1cnc2ccccc2c1` [Example VI-1, 5-Bromo-2-methoxy-pyridine-3-sulfonic acid quinolin-3-ylamide], the IC50 was less than 100 nM.

`CCN(c1cnc2ccccc2c1)S(=O)(=O)c1cc(Br)ccc1OC` [Example VII-2, 5-Bromo-2-methoxy-N-ethyl-N-(quinolin-3-yl)benzenesulfonamide] came in with an IC50 greater than 1000 nM.

Consider `CCCN(c1cnc2ccccc2c1)S(=O)(=O)c1cc(Br)ccc1OC` [Example VII-3, 5-Bromo-2-methoxy-N-propyl-N-(quinolin-3-yl)benzenesulfonamide], for which the IC50 is greater than 1000 nM.

`COc1ccc(Br)cc1S(=O)(=O)N(c1cnc2ccccc2c1)C(C)C` [Example VII-4, 5-Bromo-N-isopropyl-2-methoxy-N-(quinolin-3-yl)benzenesulfonamide] showed an IC50 greater than 1000 nM.

`CCCCN(c1cnc2ccccc2c1)S(=O)(=O)c1cc(Br)ccc1OC` [Example VII-5, 5-Bromo-N-butyl-2-methoxy-N-(quinolin-3-yl)benzenesulfonamide]: the IC50 was greater than 1000 nM.

For `COc1ccc(Br)cc1S(=O)(=O)N(Cc1ccccc1)c1cnc2ccccc2c1` [Example VII-6, 5-Bromo-N-benzyl-2-methoxy-N-(quinolin-3-yl)benzenesulfonamide], the IC50 is greater than 1000 nM.

For `COCCN(c1cnc2ccccc2c1)S(=O)(=O)c1cc(Br)ccc1OC` [Example VII-7, 5-Bromo-2-methoxy-N-(2-methoxyethyl)-N-(quinolin-3-yl)benzenesulfonamide], the IC50 is greater than 1000 nM.

`COc1ccc(Br)cc1S(=O)(=O)N(CCN(C)C)c1cnc2ccccc2c1` [Example VII-9, 5-Bromo-N-(2-(dimethylamino)ethyl)-2-methoxy-N-(quinolin-3-yl)benzenesulfonamide] registered an IC50 greater than 1000 nM.

Compound `C=CCN(c1cnc2ccccc2c1)S(=O)(=O)c1cc(Br)ccc1OC` [Example VII-10, N-allyl-5-bromo-2-methoxy-N-(quinolin-3-yl)benzenesulfonamide] displayed an IC50 greater than 1000 nM.

The compound `C#CCN(c1cnc2ccccc2c1)S(=O)(=O)c1cc(Br)ccc1OC` [Example VII-11, 5-Bromo-2-methoxy-N-(prop-2-yn-1-yl)-N-(quinolin-3-yl)benzenesulfonamide] came in with an IC50 greater than 1000 nM.

Compound `COc1ccc(OC)c(S(=O)(=O)N(C)c2cnc3ccccc3c2)c1` [Example VII-12, 2,5-Dimethoxy-N-methyl-N-(quinolin-3-yl)benzenesulfonamide] showed an IC50 greater than 1000 nM.

Consider `CCN(c1cnc2ccccc2c1)S(=O)(=O)c1cc(OC)ccc1OC` [Example VII-13, 2,5-Dimethoxy-N-ethyl-N-(quinolin-3-yl)benzenesulfonamide], for which the IC50 is greater than 1000 nM.

For `COc1ccc(OC)c(S(=O)(=O)N(c2cnc3ccccc3c2)C(C)C)c1` [Example VII-14, 2,5-Dimethoxy-N-isopropyl-N-(quinolin-3-yl)benzenesulfonamide], the IC50 is greater than 1000 nM.

Turning to `CCCCN(c1cnc2ccccc2c1)S(=O)(=O)c1cc(OC)ccc1OC` [Example VII-15, 2,5-Dimethoxy-N-butyl-N-(quinolin-3-yl)benzenesulfonamide], the IC50 was greater than 1000 nM.

The compound `COc1ccc(OC)c(S(=O)(=O)N(Cc2ccccc2)c2cnc3ccccc3c2)c1` [Example VII-16, 2,5-Dimethoxy-N-benzyl-N-(quinolin-3-yl)benzenesulfonamide] gave an IC50 greater than 1000 nM.

Take `COCCN(c1cnc2ccccc2c1)S(=O)(=O)c1cc(OC)ccc1OC` [Example VII-17, 2,5-Dimethoxy-N-(2-methoxyethyl)-N-(quinolin-3-yl)benzenesulfonamide]: the IC50 is greater than 1000 nM.

The compound `COCCCN(c1cnc2ccccc2c1)S(=O)(=O)c1cc(OC)ccc1OC` [Example VII-18, 2,5-Dimethoxy-N-(3-methoxypropyl)-N-(quinolin-3-yl)benzenesulfonamide] displayed an IC50 greater than 1000 nM.

`COc1ccc(OC)c(S(=O)(=O)N(CCN(C)C)c2cnc3ccccc3c2)c1` [Example VII-19, N-(2-(Dimethylamino)ethyl)-2,5-dimethoxy-N-(quinolin-3-yl)benzenesulfonamide]: the IC50 is greater than 1000 nM.

Turning to `C=CCN(c1cnc2ccccc2c1)S(=O)(=O)c1cc(OC)ccc1OC` [Example VII-20, N-Allyl-2,5-dimethoxy-N-(quinolin-3-yl)benzenesulfonamide], the IC50 was greater than 1000 nM.

In the case of `C#CCN(c1cnc2ccccc2c1)S(=O)(=O)c1cc(OC)ccc1OC` [Example VII-21, 2,5-Dimethoxy-N-(prop-2-yn-1-yl)-N-(quinolin-3-yl)benzenesulfonamide], the IC50 is greater than 1000 nM.

`COc1ccc(Br)cc1S(=O)(=O)Nc1ccc(N2CCOCC2)nc1` [Example VIII-1, 5-Bromo-2-methoxy-N-(6-morpholinopyridin-3-yl)benzenesulfonamide]: the IC50 was greater than 1000 nM.

`COc1ccc(OC)c(S(=O)(=O)Nc2ccc(N3CCOCC3)nc2)c1` [Example VIII-2, 2,5-Dimethoxy-N-(6-morpholinopyridin-3-yl)benzenesulfonamide] registered an IC50 greater than 1000 nM.

`COc1ccc(Br)cc1S(=O)(=O)Nc1ccc(N)nc1` [Example VIII-3, 5-Bromo-2-methoxy-N-(6-Amino-pyridin-3-yl)-benzenesulfonamide] came in with an IC50 greater than 1000 nM.

Consider `COc1ccc(OC)c(S(=O)(=O)Nc2ccc(N)nc2)c1` [Example VIII-4, 2,5-Dimethoxy-N-(6-Amino-pyridin-3-yl)-benzenesulfonamide], for which the IC50 is greater than 1000 nM.

Regarding `CNc1ccc(NS(=O)(=O)c2cc(Br)ccc2OC)cn1` [Example VIII-5, 5-Bromo-2-methoxy-N-(6-methylamino-pyridin-3-yl)-benzenesulfonamide], the IC50 lay within 100 to 1000 nM.

Regarding `CNc1ccc(NS(=O)(=O)c2cc(OC)ccc2OC)cn1` [Example VIII-6, 2,5-Dimethoxy-N-(6-methylamino-pyridin-3-yl)-benzenesulfonamide], the IC50 was greater than 1000 nM.

The compound `COc1ccc(Br)cc1S(=O)(=O)Nc1ccc(N(C)C)nc1` [Example VIII-7, 5-Bromo-N-(6-(dimethylamino)pyridin-3-yl)-2-methoxybenzenesulfonamide] came in with an IC50 greater than 1000 nM.

`COc1ccc(OC)c(S(=O)(=O)Nc2ccc(N(C)C)nc2)c1` [Example VIII-8, N-(6-(Dimethylamino)pyridin-3-yl)-2,5-dimethoxybenzenesulfonamide] returned an IC50 greater than 1000 nM.

On to `CCN(CC)c1ccc(NS(=O)(=O)c2cc(Br)ccc2OC)cn1` [Example VIII-9, 5-Bromo-N-(6-(diethylamino)pyridin-3-yl)-2-methoxybenzenesulfonamide], for which the IC50 fell in the range of 100 to 1000 nM.

`CCN(CC)c1ccc(NS(=O)(=O)c2cc(OC)ccc2OC)cn1` [Example VIII-10, N-(6-(Diethylamino)pyridin-3-yl)-2,5-dimethoxybenzenesulfonamide] showed an IC50 greater than 1000 nM.

On to `COCCNc1ccc(NS(=O)(=O)c2cc(Br)ccc2OC)cn1` [Example VIII-11, 5-Bromo-2-methoxy-N-(6-((2-methoxyethyl)amino)pyridin-3-yl)benzenesulfonamide], for which the IC50 is greater than 1000 nM.

With `COCCNc1ccc(NS(=O)(=O)c2cc(OC)ccc2OC)cn1` [Example VIII-12, 2,5-Dimethoxy-N-(6-((2-methoxyethyl)amino)pyridin-3-yl)benzenesulfonamide], the IC50 is greater than 1000 nM.

Take `COc1ccc(Br)cc1S(=O)(=O)Nc1ccc(NCCN(C)C)nc1` [Example VIII-13, 5-Bromo-N-(6-((2-(dimethylamino)ethyl)amino)pyridin-3-yl)-2-methoxybenzenesulfonamide]: the IC50 is greater than 1000 nM.

The compound `COc1ccc(OC)c(S(=O)(=O)Nc2ccc(NCCN(C)C)nc2)c1` [Example VIII-14, N-(6-((2-(Dimethylamino)ethyl)amino)pyridin-3-yl)-2,5-dimethoxybenzenesulfonamide] showed an IC50 greater than 1000 nM.

Regarding `COc1ccc(Br)cc1S(=O)(=O)Nc1ccc(Nc2ccccc2)nc1` [Example VIII-15, 5-Bromo-2-methoxy-N-(6-(phenylamino)pyridin-3-yl)benzenesulfonamide], the IC50 is greater than 1000 nM.

`COc1ccc(Br)cc1S(=O)(=O)Nc1ccc(N2CCCCC2)nc1` [Example VIII-17, 5-Bromo-2-methoxy-N-(3,4,5,6-tetrahydro-2H-[1,2′]bipyridinyl-5′-yl)-benzenesulfonamide] returned an IC50 greater than 1000 nM.

As to `COc1ccc(OC)c(S(=O)(=O)Nc2ccc(N3CCCCC3)nc2)c1` [Example VIII-18, 2,5-Dimethoxy-N-(3,4,5,6-tetrahydro-2H-[1,2′]bipyridinyl-5′-yl)-benzenesulfonamide], the IC50 was greater than 1000 nM.

Compound `COc1ccc(Br)cc1S(=O)(=O)Nc1ccc(N2CCN(C)CC2)nc1` [Example VIII-19, 5-Bromo-2-methoxy-N-[6-(4-methyl-piperazin-1-yl)-pyridin-3-yl]-benzenesulfonamide] displayed an IC50 greater than 1000 nM.

`COc1ccc(OC)c(S(=O)(=O)Nc2ccc(N3CCN(C)CC3)nc2)c1` [Example VIII-20, 2,5-Dimethoxy-N-[6-(4-methyl-piperazin-1-yl)-pyridin-3-yl]-benzenesulfonamide] returned an IC50 greater than 1000 nM.

`O=S(=O)(Nc1cnc2ccccc2c1)c1cc(Br)ccc1OC(F)(F)F` [Example X-1, 5-Bromo-N-quinolin-3-yl-2-trifluoromethoxy-benzenesulfonamide] registered an IC50 of less than 100 nM.
